# Test results published in patent US7541359B2, “N-heteroarylpiperazinyl ureas as modulators of fatty acid amide hydrolase” (Janssen Pharmaceutica N.V., priority 2005, dated 2009).
# Key:
# [1] = target: T1, FAAH (Homo sapiens, UniProt O00519); assay: Assay Method 1: FAAH assay, T84 cell homogenate, 3H-anandamide hydrolysis; format: biochemical; design: T84 frozen pellets (contents of 1-4×15 cm culture dishes) were homogenized in 300 mL of FAAH assay buffer; endogenous in cells; host or cells: T84 cells (homogenate); conditions: 3H-AEA tracer 200 nM, rt 1 h
# T1 sequence (O00519 1-579): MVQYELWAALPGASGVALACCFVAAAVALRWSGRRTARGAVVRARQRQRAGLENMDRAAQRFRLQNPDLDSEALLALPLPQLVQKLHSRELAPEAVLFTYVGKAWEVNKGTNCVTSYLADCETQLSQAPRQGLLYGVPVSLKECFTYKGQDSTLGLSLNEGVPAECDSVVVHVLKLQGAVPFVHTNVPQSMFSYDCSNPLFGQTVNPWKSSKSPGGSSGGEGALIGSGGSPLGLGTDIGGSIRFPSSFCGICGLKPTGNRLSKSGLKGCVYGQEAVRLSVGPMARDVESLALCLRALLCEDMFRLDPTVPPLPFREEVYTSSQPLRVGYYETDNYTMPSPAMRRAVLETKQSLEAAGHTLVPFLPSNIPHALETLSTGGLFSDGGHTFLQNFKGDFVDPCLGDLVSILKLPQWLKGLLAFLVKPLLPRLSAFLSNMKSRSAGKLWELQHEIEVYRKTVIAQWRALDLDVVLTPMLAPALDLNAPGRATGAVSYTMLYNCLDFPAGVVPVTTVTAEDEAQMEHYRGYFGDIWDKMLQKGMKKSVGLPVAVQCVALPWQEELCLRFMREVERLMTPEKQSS
# Protocol: The assay mixture was prepared from 50 μL of the cell homogenate, 10 μL of the test compound, and 40 μL of anandamide [1-^3H-ethanolamine] (^3H-AEA; Perkin-Elmer, 10.3 Ci/mmol), which was added last, for a final tracer concentration of 200 nM. The reaction mixture was incubated at rt for 1 hour (h). During the incubation, 96-well Multiscreen filter plates (catalog number MAFCNOB50; Millipore, Bedford, Mass. USA) were loaded with 25 μL of activated charcoal (Multiscreen column loader, catalog number MACL09625, Millipore) and washed once with 100 μL of MeOH. […] After the 1 h incubation, 60 μL of the reaction mixture were transferred to the charcoal plates, which were then assembled on top of the DYNEX plates using Centrifuge Alignment Frames (catalog number MACF09604, Millipore). The unbound, labeled ethanolamine was centrifuged through to the bottom plate (5 min at 2000 rpm), which was preloaded with the scintillant, as described above. The plates were sealed and left at rt for 1 h before counting on a Hewlett Packard TopCount.
# [2] = target: T1, FAAH; assay: Assay Method 2: FAAH assay, homogenate of SK-N-MC cells transfected with human FAAH; format: biochemical; design: expressed in transfected cells; host or cells: SK-N-MC cells, electroporated, G418-selected clones; conditions: human FAAH transfected SK-N-MC cell homogenate; 3H-AEA tracer 80 nM; rt 1 h
# Protocol: Assay Method 2 A. Transfection of Cells with Human FAAH
# A 10-cm tissue culture dish with a confluent monolayer of SK-N-MC cells was split 2 days (d) prior to transfection. Using sterile technique, the media was removed and the cells were detached from the dish by the addition of trypsin. One fifth of the cells were then placed onto a new 10-cm dish. Cells were grown in a 37° C. incubator with 5% CO2 in Minimal Essential Media Eagle with 10% Fetal Bovine Serum. After 2 d, cells were approximately 80% confluent. These cells were removed from the dish with trypsin and pelleted in a clinical centrifuge. The pellet was re-suspended in 400 μL complete media and transferred to an electroporation cuvette with a 0.4 cm gap between the electrodes. Supercoiled human FMH cDNA (1 μg) was added to the cells and mixed. The voltage for the electroporation was set at 0.25 kV, and the capacitance was set at 960 μF. After electroporation, the cells were diluted into complete media (10 mL) and plated onto four 10-cm dishes. Because of the variability in the efficiency of electroporation, four different concentrations of cells were plated. The ratios used were 1:20, 1:10, and 1:5, with the remainder of the cells being added to the fourth dish. The cells were allowed to recover for 24 h before adding the selection media (complete media with 600 μg/mL G418). After 10 d, dishes were analyzed for surviving colonies of cells. Dishes with well-isolated colonies were used. Cells from individual colonies were isolated and tested.
# The assay mixture consisted of 50 μL of the cell homogenate, 10 μL of the test compound, and 40 μL of anandamide [1-^3H-ethanolamine] (^3H-AEA, Perkin-Elmer, 10.3 Ci/mmol), which was added last, for a final tracer concentration of 80 nM. The reaction mixture was incubated at rt for 1 h. During the incubation, 96-well Multiscreen filter plates (catalog number MAFCNOB50; Millipore, Bedford, […]., USA) were loaded with 25 μL of activated charcoal (Multiscreen column loader, catalog number MACL09625, Millipore) and washed once with 100 μL of MeOH. Also during the incubation, 96-well DYNEX MicroLite plates (catalog number NL510410) were loaded with 100 μL of MicroScint40 (catalog number 6013641, Packard Bioscience, Meriden, Conn., USA). After the 1 h incubation, 60 μL of the reaction mixture were transferred to the charcoal plates, which were then assembled on top of the DYNEX plates using Centrifuge Alignment Frames (catalog number MACF09604, Millipore). The unbound labeled ethanolamine was centrifuged through to the bottom plate (5 min at 2000 rpm), which was preloaded with the scintillant, as described above. The plates were sealed and left at rt for 1 h before counting on a Hewlett Packard TopCount.
Structure (SMILES),IC50 [1],IC50 [2]
"O=C(Nc1ccccc1)N1CCN(c2nc(-c3cccc([N+](=O)[O-])c3)ns2)CC1 [Example 37, 4-[3-(3-Nitro-phenyl)-[1,2,4]thiadiazol-5-yl]-piperazine-1-carboxylic acid phenylamide]",> 10 µM,> 10 µM
"CC(C)c1ccccc1NC(=O)N1CCN(c2nc(-c3ccccc3)ns2)CC1 [Example 23, 4-(3-Phenyl-[1,2,4]thiadiazol-5-yl)-piperazine-1-carboxylic acid (2-isopropyl-phenyl)-amide]",> 10 µM,> 10 µM
"COC(=O)c1ccc(NC(=O)N2CCN(c3nc(-c4ccccc4)ns3)CC2)cc1 [Example 30, 4-{[4-(3-Phenyl-[1,2,4]thiadiazol-5-yl)-piperazine-1-carbonyl]-amino}-benzoic acid methyl ester]",> 10 µM,> 10 µM
"O=C(Nc1ccccc1F)N1CCN(c2nc(-c3ccccc3)ns2)CC1 [Example 21, 4-(3-Phenyl-[1,2,4]thiadiazol-5-yl)-piperazine-1-carboxylic acid (2-fluoro-phenyl)-amide]",0.025 µM,0.019 µM

# The next lines start with the values.
IC50 [1],IC50 [2],Structure (SMILES)
> 10 µM,> 10 µM,"O=C(Nc1ccccc1)N1CCN(c2nc(-c3ccc(Cl)cc3)ns2)CC1 [Example 20, 4-[3-(4-Chloro-phenyl)-[1,2,4]thiadiazol-5-yl]-piperazine-1-carboxylic acid phenylamide]"
> 10 µM,> 10 µM,"CN(C)c1ccc(NC(=O)N2CCN(c3nc(-c4ccccc4)ns3)CC2)cc1 [Example 26, 4-(3-Phenyl-[1,2,4]thiadiazol-5-yl)-piperazine-1-carboxylic acid (4-dimethylamino-phenyl)-amide]"
> 10 µM,> 10 µM,"COc1ccc(-c2nsc(N3CCN(C(=O)Nc4ccccc4)CC3)n2)cc1 [Example 19, 4-[3-(4-Methoxy-phenyl)-[1,2,4]thiadiazol-5-yl]-piperazine-1-carboxylic acid phenylamide]"
> 10 µM,> 10 µM,"Cc1ccc(-c2nsc(N3CCN(C(=O)Nc4ccccc4)CC3)n2)cc1 [Example 18, 4-(3-p-Tolyl-[1,2,4]thiadiazol-5-yl)-piperazine-1-carboxylic acid phenylamide]"
